For one data set, the target named is human TAAR1 receptor (Homo sapiens (Human), UniProt Q96RJ0). Briefly: Evaluation of agonist activity on human TAAR1 receptor (cAMP assay). The format is cell-based. Conditions: CHO, 0.5 h, cAMP in human TAAR1-expressing CHO cells, relative to 100 μM tyramine, read-out: TAAR1 agonist activity at each concentration (%); for activation at 0.1 µM: 100 nM; for activation at 1 µM: 1000 nM; for activation at 10 µM: 10000 nM. How it is done:
TAAR1 is a G protein-coupled receptor that binds to G proteins (Gas), and activation of the TAAR1 receptor by agonists induces an increase in intracellular cAMP levels. Therefore, the agonist activity of the sample on the human TAAR1 receptor was evaluated using the cAMP assay method.
cAMP Hunter™ CHO-K1 TAAR1 Gs Cell Line, a cell expressing human TAAR1 receptor, was purchased. Human TAAR1-expressing CHO cells were seeded in a 96-well plate, and after culturing for 24 hours, a sample dissolved in DMSO was added and incubated at 37° C. for 30 minutes. A sample for cAMP measurement was prepared according to the cAMPHiRange kit protocol. The amount of cAMP produced by the sample was measured by time-resolved fluorescence using EnVision (excitation wavelength: 330 nm, fluorescence wavelength […]/665 nm).
Sample %=100×{(Csamp)−(Cblank)}/{(Ctyramine)−(Cblank)} • Csamp: count of sample, Ctyramine: count of 100 μM tyramine, Cblank: count of blank
(In general: Changes in cAMP serve as a functional read-out for many G protein-coupled receptors.)

The next data set addresses hERG channel (Homo sapiens (Human), UniProt Q12809). Briefly: Evaluation of hERG channel inhibitory activity (whole-cell patch clamp, hERG-CHO cells). The format is cell-based. Conditions: autopatch clamp, read-out: hERG inhibition IC50. (hERG is a cardiac potassium channel; its block is linked to QT prolongation.)

pIC50: −log10 of the molar value. Counter-ions that a name gives are not always drawn. Where only a bound is given, the exact number is not on record here.

Sequence of human TAAR1 receptor (Q96RJ0 whole entry, the tested form may be a part): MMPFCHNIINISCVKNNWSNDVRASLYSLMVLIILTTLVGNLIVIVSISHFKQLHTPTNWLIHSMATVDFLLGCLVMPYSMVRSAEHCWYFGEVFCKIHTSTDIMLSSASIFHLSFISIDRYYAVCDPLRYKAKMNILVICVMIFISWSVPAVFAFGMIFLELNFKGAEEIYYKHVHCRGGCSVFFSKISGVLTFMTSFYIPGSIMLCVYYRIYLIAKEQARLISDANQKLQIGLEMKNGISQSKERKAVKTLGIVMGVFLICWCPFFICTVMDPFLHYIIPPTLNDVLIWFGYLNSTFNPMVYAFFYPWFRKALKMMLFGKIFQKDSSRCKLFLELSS
Sequence of hERG channel (Q12809 whole entry): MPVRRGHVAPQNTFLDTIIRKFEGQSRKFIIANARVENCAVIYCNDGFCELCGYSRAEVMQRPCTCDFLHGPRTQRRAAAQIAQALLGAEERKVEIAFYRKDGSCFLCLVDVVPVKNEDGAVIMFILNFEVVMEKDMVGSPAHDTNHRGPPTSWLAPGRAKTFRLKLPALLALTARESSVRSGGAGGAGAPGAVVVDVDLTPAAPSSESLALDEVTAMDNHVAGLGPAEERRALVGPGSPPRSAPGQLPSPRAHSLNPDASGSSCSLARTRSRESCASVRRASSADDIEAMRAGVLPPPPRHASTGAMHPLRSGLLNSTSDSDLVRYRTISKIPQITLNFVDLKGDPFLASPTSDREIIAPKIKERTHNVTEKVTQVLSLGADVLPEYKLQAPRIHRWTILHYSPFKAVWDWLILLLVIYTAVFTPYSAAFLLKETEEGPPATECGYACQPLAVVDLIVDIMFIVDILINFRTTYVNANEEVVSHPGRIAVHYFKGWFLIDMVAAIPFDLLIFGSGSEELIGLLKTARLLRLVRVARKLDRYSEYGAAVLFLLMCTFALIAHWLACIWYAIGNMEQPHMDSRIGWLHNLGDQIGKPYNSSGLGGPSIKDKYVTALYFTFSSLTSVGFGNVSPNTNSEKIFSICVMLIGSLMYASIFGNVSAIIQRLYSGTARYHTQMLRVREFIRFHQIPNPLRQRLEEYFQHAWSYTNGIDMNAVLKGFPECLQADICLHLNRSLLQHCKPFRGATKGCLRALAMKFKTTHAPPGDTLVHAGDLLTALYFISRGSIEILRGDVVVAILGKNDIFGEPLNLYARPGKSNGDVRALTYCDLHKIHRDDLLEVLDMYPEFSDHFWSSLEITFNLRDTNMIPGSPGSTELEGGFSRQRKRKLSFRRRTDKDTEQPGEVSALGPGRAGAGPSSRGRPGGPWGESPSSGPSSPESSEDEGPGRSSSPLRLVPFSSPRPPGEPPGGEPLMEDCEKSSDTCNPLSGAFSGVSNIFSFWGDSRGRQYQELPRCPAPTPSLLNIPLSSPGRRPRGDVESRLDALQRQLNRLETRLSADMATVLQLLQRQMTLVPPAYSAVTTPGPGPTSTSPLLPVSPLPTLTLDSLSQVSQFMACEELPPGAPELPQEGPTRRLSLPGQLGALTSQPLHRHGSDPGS

By pIC50 is commonly meant the negative decadic logarithm of the IC50, by convention in mol/L. In the case of `NC[C@H]1C[C@@H](c2ccccc2)Oc2cccnc21` (racemic) [Example 24], at human TAAR1 receptor, the activation at 0.1 µM was found to be 25%, the activation at 1 µM was found to be 71% and the activation at 10 µM turned out to be 101%. The pIC50 on hERG channel is 5.16.

Regarding `CNC[C@H]1c2nccc(C)c2O[C@@H]1C` [Example 51], at human TAAR1 receptor, the activation at 0.1 µM worked out at 10%, the activation at 1 µM was 46% and the activation at 10 µM stood at 77%. Also, the pIC50 on hERG channel was less than 4.00.

As to `CNC[C@H]1c2ncc(Cl)cc2O[C@@H]1C` [Example 50], at human TAAR1 receptor, the activation at 0.1 µM came to 12%, the activation at 1 µM stood at 45% and the activation at 10 µM came to 63%. On hERG channel, the negative logarithm of the IC50 (pIC50) was less than 4.00.

In the case of `CNC[C@@H]1C[C@H](C)Oc2cccnc21` [Example 6], on human TAAR1 receptor, the activation at 0.1 µM worked out at 16%, the activation at 1 µM was determined as 57% and the activation at 10 µM was 75%. The pIC50 on hERG channel was less than 4.00.

For `C[C@H]1Oc2cccnc2[C@H]1CN` (racemic) [Example 36, rac-1-[(2R,3R)-2-methyl-2,3-dihydrofuro[3,2-b]pyridin-3-yl]methanamine dihydrochloride], at human TAAR1 receptor, the activation at 0.1 µM came to 0%, the activation at 1 µM is 20% and the activation at 10 µM was determined as 67%.

`NCC1CCc2c(Cl)ccnc21` (stereo not shown) [Example 75]: at human TAAR1 receptor, the activation at 0.1 µM turned out to be 0%, the activation at 1 µM amounted to 26% and the activation at 10 µM came out at 75%.

Consider `NCC1CSc2cccnc21` (stereo not shown) [Example 10], for which, on human TAAR1 receptor, the activation at 0.1 µM was 18%, the activation at 1 µM was 66% and the activation at 10 µM amounted to 91%.

In the case of `Cc1ccc2c(n1)[C@@H](CN)C[C@@H](C)O2` [Example 17], on human TAAR1 receptor, the activation at 0.1 µM was determined as 0%, the activation at 1 µM is 4% and the activation at 10 µM came to 25%.

With `[2H][C@]1(C)Oc2cccnc2[C@H]1CN` (relative stereo) [Example 95, rel-1-[(2R,3S)-2-methyl(2-^2H)-2,3-dihydrofuro[3,2-b]pyridin-3-yl]methanamine dihydrochloride], on human TAAR1 receptor, the activation at 0.1 µM was determined as 59%, the activation at 1 µM amounted to 90% and the activation at 10 µM is 96%.

For `Cc1ccnc2c1OCCC2CN` (stereo not shown) [Example 70], on human TAAR1 receptor, the activation at 0.1 µM worked out at 0%, the activation at 1 µM is 23% and the activation at 10 µM amounted to 57%.

As to `C[C@@H]1Oc2cccnc2[C@H]1CN` [Example 19], at human TAAR1 receptor, the activation at 0.1 µM came out at 2%, the activation at 1 µM was determined as 13% and the activation at 10 µM came out at 51%.

Regarding `NC[C@H]1c2ncccc2O[C@@H]1CO` (racemic) [Example 26], at human TAAR1 receptor, the activation at 0.1 µM amounted to 0%, the activation at 1 µM was found to be 25% and the activation at 10 µM stood at 73%.

Consider `Cc1ccc2c(n1)[C@H](CN)C1(CC1)O2` (single isomer, unassigned) [Example 101, rel-1-[(3'S)-5′-methyl-3′H-spiro[cyclopropane-1,2′-furo[3,2-b]pyridine]-3′-yl]methanamine dihydrochloride], for which, at human TAAR1 receptor, the activation at 0.1 µM is 62%, the activation at 1 µM came to 79% and the activation at 10 µM amounted to 84%.

As for `CC1CCC(CN)c2ncccc21` (stereo not shown) [Example 77], at human TAAR1 receptor, the activation at 0.1 µM was found to be 0%, the activation at 1 µM came to 11% and the activation at 10 µM came out at 47%.

As for `NC[C@H]1c2ncccc2O[C@H]2CCCC[C@@H]21` (racemic) [Example 33, rac-1-[(5aS,9aR,10S)-6,7,8,9,9a,10-hexahydro-5aH-[1]benzpyrano[3,2-b]pyridine-10-yl]methanamine dihydrochloride], on human TAAR1 receptor, the activation at 0.1 µM stood at 4%, the activation at 1 µM turned out to be 22% and the activation at 10 µM was 52%.

Turning to `C[C@H]1Oc2cccnc2[C@@H]1C(C)(C)N` [Example 54], on human TAAR1 receptor, the activation at 0.1 µM came out at 15%, the activation at 1 µM stood at 63% and the activation at 10 µM turned out to be 94%.

Consider `C=CCNC[C@H]1c2ncccc2O[C@@H]1C` [Example 71], for which, at human TAAR1 receptor, the activation at 0.1 µM is 0%, the activation at 1 µM stood at 6% and the activation at 10 µM was 29%.

As for `CCOc1ccnc2c1CCC2CN` (stereo not shown) [Example 76], on human TAAR1 receptor, the activation at 0.1 µM came to 0%, the activation at 1 µM amounted to 6% and the activation at 10 µM worked out at 33%.

Regarding `CC[C@@H]1C[C@H](CN)c2ncccc2O1` (racemic) [Example 60], at human TAAR1 receptor, the activation at 0.1 µM stood at 7%, the activation at 1 µM is 40% and the activation at 10 µM came out at 82%.

On to `NC[C@H]1c2ncc(Cl)cc2OC12CC2` (single isomer, unassigned) [Example 99, rel-1-[(3'S)-6′-chloro-3′H-spiro[cyclopropane-1,2′-furo[3,2-b]pyridine]-3′-yl]methanamine dihydrochloride], for which, at human TAAR1 receptor, the activation at 0.1 µM came out at 9%, the activation at 1 µM is 39% and the activation at 10 µM was found to be 62%.

For `C[C@H]1[C@H](CN)c2ncccc2O[C@@H]1C` (racemic) [Example 63], at human TAAR1 receptor, the activation at 0.1 µM was 3%, the activation at 1 µM came to 22% and the activation at 10 µM was found to be 62%.

Regarding `C[C@H]1Oc2ccc(C(F)(F)F)nc2[C@@H]1CN` [Example 30], on human TAAR1 receptor, the activation at 0.1 µM amounted to 2%, the activation at 1 µM came to 18% and the activation at 10 µM is 63%.

Consider `CCCNC[C@H]1c2ncccc2O[C@@H]1C` [Example 72], for which, on human TAAR1 receptor, the activation at 0.1 µM was 0%, the activation at 1 µM is 4% and the activation at 10 µM was 23%.

For the compound `Cc1ccnc2c1CCCC2CN` (racemic) [Example 92, rac-1-(4-methyl-5,6,7,8-tetrahydroquinolin-8-yl)methanamine], on human TAAR1 receptor, the activation at 0.1 µM was 0%, the activation at 1 µM was 0% and the activation at 10 µM worked out at 0%.

With `CNC[C@@H]1C[C@@H](C)Oc2cccnc21` (racemic) [Example 7], at human TAAR1 receptor, the activation at 0.1 µM worked out at 17%, the activation at 1 µM is 56% and the activation at 10 µM was determined as 75%.

On to `CC[C@H]1COc2cccnc2[C@@H]1CN` (racemic) [Example 86], for which, on human TAAR1 receptor, the activation at 0.1 µM is 1%, the activation at 1 µM was 8% and the activation at 10 µM was found to be 40%.

Take `NCC1CCOc2ccc(C(F)(F)F)nc21` (stereo not shown) [Example 67]: at human TAAR1 receptor, the activation at 0.1 µM was determined as 1%, the activation at 1 µM is 10% and the activation at 10 µM was 39%.

For the compound `NC[C@@H]1c2nc(F)ccc2OC12CC2` (single isomer, unassigned) [Example 102, rel-1-[(3′R)-5′-fluoro-3′H-spiro[cyclopropane-1,2′-furo[3,2-b]pyridine]-3′-yl]methanamine dihydrobromide], on human TAAR1 receptor, the activation at 0.1 µM turned out to be 1%, the activation at 1 µM is 18% and the activation at 10 µM was determined as 59%.

Regarding `NC[C@@H]1c2ncccc2OC12CC2` (single isomer, unassigned) [Example 96, rel-1-[(3′R)-3′H-spiro[cyclopropane-1,2′-furo[3,2-b]pyridine]-3′-yl]methanamine dihydrochloride], on human TAAR1 receptor, the activation at 0.1 µM stood at 3%, the activation at 1 µM came to 28% and the activation at 10 µM is 66%.

As to `C[C@@H]1[C@H](CN)c2ncccc2O[C@@H]1C` (racemic) [Example 62, rac-1-[(2R,3R,4R)-2,3-dimethyl-3,4-dihydro-2H-pyrano[3,2-b]pyridin-4-yl]methanamine dihydrochloride], at human TAAR1 receptor, the activation at 0.1 µM is 2%, the activation at 1 µM is 20% and the activation at 10 µM came out at 66%.

Take `Cc1cnc2c(c1)O[C@H](C)[C@H]2CN` [Example 28]: on human TAAR1 receptor, the activation at 0.1 µM came out at 7%, the activation at 1 µM is 38% and the activation at 10 µM came out at 71%.

Consider `NCC1c2nc(F)ccc2OC12CC2` (stereo not shown) [Example 82], for which, at human TAAR1 receptor, the activation at 0.1 µM turned out to be 51%, the activation at 1 µM is 92% and the activation at 10 µM came out at 101%.

Regarding `C[C@H]1COc2cccnc2[C@@H]1CN` (racemic) [Example 1, rac-1-[(3R,4S)-3-methyl-3,4-dihydro-2H-pyrano[3,2-b]pyridin-4-yl]methanamine dihydrochloride], at human TAAR1 receptor, the activation at 0.1 µM worked out at 2%, the activation at 1 µM is 18% and the activation at 10 µM is 54%.

As to `NCC1CCc2c(OC3CCC3)ccnc21` (racemic) [Example 91, rac-1-[4-(cyclobutyloxy)-6,7-dihydro-5H-cyclopenta[b]pyridin-7-yl]methanamine dihydrochloride], at human TAAR1 receptor, the activation at 0.1 µM was found to be 0%, the activation at 1 µM came out at 14% and the activation at 10 µM came out at 49%.

Consider `NCC1CCNc2cccnc21` (stereo not shown) [Example 68], for which, at human TAAR1 receptor, the activation at 0.1 µM amounted to 3%, the activation at 1 µM came out at 23% and the activation at 10 µM came to 68%.
